IC50 and Activity data for 15 compounds are collected here from ChEMBL document CHEMBL1140511, “Synthesis of (aryloxyacetylamino)-isonicotinic/nicotinic acid analogues as potent hypoxia-inducible factor (HIF)-1alpha inhibitors” (Bioorg Med Chem Lett, 2007).

The term IC50 denotes the concentration that gives 50% inhibition. A lower IC50 goes with greater potency.

Assay [1] has as its target T1, Hypoxia-inducible factor 1-alpha (Homo sapiens, UniProt Q16665). Briefly: Inhibition of hypoxia induced HIF1-alpha transcriptional activity in human Hep3B cells by reporter gene assay. As to conditions: hep 3b2. The class given is cell-based. (In general: In a reporter assay the amount or activity of a reporter protein is the signal.)
Assay [2] concerns the target T1, Hypoxia-inducible factor 1-alpha. Kind of assay: Inhibition of hypoxia induced HIF1-alpha transcriptional activity in human AGS cells by reporter gene assay. Format: cell-based.
The target is the same in assay [3]. Kind of assay: Inhibition of hypoxia induced HIF1-alpha transcriptional activity in human Sk-Hep1 cells by reporter gene assay. The class given is cell-based.
The nature of assay [4]: Suppression of hypoxia induced GAPDH mRNA expression in human Hep3B cells by RT-PCR. The class given is functional, cell-based. As to conditions: Hep 3B2.
Assay [5] in a line: Suppression of hypoxia induced EPO expression in human Hep3B cells by RT-PCR. Format: functional, cell-based. As to conditions: Hep 3B2.
Assay [6] can be described thus: Suppression of hypoxia induced VEGF expression in human Hep3B cells by RT-PCR. Format: functional, cell-based. As to conditions: Hep 3B2.
Assay [7] in a line: Suppression of hypoxia induced HIF1-alpha mRNA expression in human Hep3B cells by RT-PCR. As to conditions: Hep 3B2. The class given is functional, cell-based.

The source made the active and inactive calls. No cut-off for these calls is given here.

T1 sequence (Q16665 whole entry): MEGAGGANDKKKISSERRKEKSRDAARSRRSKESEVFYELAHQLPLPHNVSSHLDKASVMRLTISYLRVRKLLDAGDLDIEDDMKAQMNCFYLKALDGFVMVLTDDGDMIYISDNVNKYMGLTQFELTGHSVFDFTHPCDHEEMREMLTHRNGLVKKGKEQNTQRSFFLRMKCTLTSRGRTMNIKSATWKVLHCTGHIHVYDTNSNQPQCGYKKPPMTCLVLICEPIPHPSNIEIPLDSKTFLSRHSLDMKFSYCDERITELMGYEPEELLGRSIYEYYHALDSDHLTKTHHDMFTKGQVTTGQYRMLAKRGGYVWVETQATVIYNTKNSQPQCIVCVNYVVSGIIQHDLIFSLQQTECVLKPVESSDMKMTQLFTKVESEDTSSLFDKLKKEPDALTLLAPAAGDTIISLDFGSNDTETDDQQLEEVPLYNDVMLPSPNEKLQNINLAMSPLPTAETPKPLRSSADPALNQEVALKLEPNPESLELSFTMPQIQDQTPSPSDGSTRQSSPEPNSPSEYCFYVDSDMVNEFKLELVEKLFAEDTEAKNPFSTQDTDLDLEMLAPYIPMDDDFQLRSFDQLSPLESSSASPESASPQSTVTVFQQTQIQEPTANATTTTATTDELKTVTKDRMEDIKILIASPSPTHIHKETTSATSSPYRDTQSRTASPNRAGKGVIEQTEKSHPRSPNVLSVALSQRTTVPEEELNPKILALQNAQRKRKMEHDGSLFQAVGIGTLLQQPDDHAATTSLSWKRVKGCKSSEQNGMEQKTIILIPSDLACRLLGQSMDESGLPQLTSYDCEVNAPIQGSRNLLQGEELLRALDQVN

Consider `O=C(COc1ccc(C23CC4CC(CC(C4)C2)C3)cc1)Nc1cccc(C(=O)O)c1`, for which the half-maximal inhibitory concentration (IC50) in assay [1] amounted to 0.4 µM; in assay [2], 0.35 µM.

Turning to `O=C(COc1ccc(C23CC4CC(CC(C4)C2)C3)cc1)Nc1cncc(C(=O)O)c1`, the 50% inhibitory concentration (IC50) in assay [3], in assay [1] and in assay [2] was > 30 µM in each case.

In the case of `O=C(COc1ccc(C23CC4CC(CC(C4)C2)C3)cc1)Nc1cc(C(=O)O)ccn1`, the IC50 was found to be 2 µM in assay [3], 1 µM in assay [1] and 0.8 µM in assay [2].

Consider `COC(=O)c1ccnc(NC(=O)COc2ccc(C34CC5CC(CC(C5)C3)C4)cc2)c1`, for which the IC50 in assay [3] amounted to 1.03 µM; in assay [1] it was 1.2 µM; in assay [2] it was 2 µM.

On to `O=C(COc1ccc(C23CC4CC(CC(C4)C2)C3)cc1)Nc1cc(C(=O)NCCCn2ccnc2)ccn1`, for which the concentration for half-maximal inhibition (IC50) in assay [3] came to 0.9 µM; in assay [1], 11.2 µM; in assay [2], 11 µM.

Take `NC(=O)c1ccnc(NC(=O)COc2ccc(C34CC5CC(CC(C5)C3)C4)cc2)c1`: the result in assay [4] and in assay [7] was inactive. Also, the IC50 in assay [3] came to 0.6 µM; in assay [1], 3.1 µM; in assay [2], 1.8 µM. Also, the Activity entry in assay [5] and in assay [6] was “Dose-dependent effect” in each case.

In the case of `O=C(COc1ccc(C23CC4CC(CC(C4)C2)C3)cc1)Nc1cc(C(=O)NCc2ccco2)ccn1`, the IC50 in assay [3], in assay [1] and in assay [2] was > 30 µM each time.

Take `O=C(COc1ccc(C23CC4CC(CC(C4)C2)C3)cc1)Nc1cc(C(=O)Nc2ccc(Cl)cc2)ccn1`: the results for the half-maximal inhibitory concentration (IC50) in assay [3], in assay [1] and in assay [2] were 2.5 µM, > 30 µM and 18.6 µM, respectively.

Regarding `O=C(COc1ccc(C23CC4CC(CC(C4)C2)C3)cc1)Nc1cc(C(=O)NCCc2ccncc2)ccn1`, the IC50 was found to be 3.4 µM in assay [3], 3.4 µM in assay [1] and 5.2 µM in assay [2].

Regarding `NC(=O)c1cncc(NC(=O)COc2ccc(C34CC5CC(CC(C5)C3)C4)cc2)c1`, the values for the IC50 in assay [3], in assay [1] and in assay [2] were 11.9 µM, > 10 µM and 0.9 µM, respectively.

Take `COC(=O)c1cccc(NC(=O)COc2ccc(C34CC5CC(CC(C5)C3)C4)cc2)c1`: the concentration for half-maximal inhibition (IC50) in assay [1] came to 2.6 µM; in assay [2], 0.7 µM.

`O=C(COc1ccc(C23CC4CC(CC(C4)C2)C3)cc1)Nc1cncc(C(=O)NCCCn2ccnc2)c1`: the figures for the half-maximal inhibitory concentration (IC50) in assay [3], in assay [1] and in assay [2] were 1.9 µM, > 10 µM and > 10 µM, respectively.

Consider `O=C(COc1ccc(C23CC4CC(CC(C4)C2)C3)cc1)Nc1cncc(C(=O)NCc2ccco2)c1`, for which the IC50 in assay [3] is 4.1 µM; in assay [1], > 30 µM; in assay [2], 30 µM.

Take `O=C(COc1ccc(C23CC4CC(CC(C4)C2)C3)cc1)Nc1cncc(C(=O)NCCc2ccncc2)c1`: the results for the half-inhibitory concentration (IC50) in assay [3], in assay [1] and in assay [2] were > 30 µM, > 30 µM and 1.3 µM, respectively.

Take `COC(=O)c1cncc(NC(=O)COc2ccc(C34CC5CC(CC(C5)C3)C4)cc2)c1`: the IC50 in assay [3] was > 30 µM; in assay [1], 5.9 µM; in assay [2] it was 5 µM.
